Reference: US9040713B2, “Methods of managing blood sugar levels and compositions related thereto” (EMORY UNIVERSITY, priority 2010, dated 2015)

Assays:
[1] = biological target: IR (Mus musculus, UniProt P15208); test: IR signaling in differentiated 3T3-L1 adipocytes (immunoblotting); assay type: cell-based; parameters: endogenous in cells; host or cells: differentiated 3T3-L1 adipocytes; settings: for Akt and ERK phosphorylation after IR knockdown / ERK phosphorylation after IR knockdown: siRNA against IR; for Akt and ERK phosphorylation after IR knockdown: 5 μM 4524-E7 or insulin 100 nM; for IR phosphorylation: 5 nM; for ERK phosphorylation after IR knockdown: insulin 100 nM 15 min or DDN 5 μM 30 min
IR, sequence (P15208 28-1372): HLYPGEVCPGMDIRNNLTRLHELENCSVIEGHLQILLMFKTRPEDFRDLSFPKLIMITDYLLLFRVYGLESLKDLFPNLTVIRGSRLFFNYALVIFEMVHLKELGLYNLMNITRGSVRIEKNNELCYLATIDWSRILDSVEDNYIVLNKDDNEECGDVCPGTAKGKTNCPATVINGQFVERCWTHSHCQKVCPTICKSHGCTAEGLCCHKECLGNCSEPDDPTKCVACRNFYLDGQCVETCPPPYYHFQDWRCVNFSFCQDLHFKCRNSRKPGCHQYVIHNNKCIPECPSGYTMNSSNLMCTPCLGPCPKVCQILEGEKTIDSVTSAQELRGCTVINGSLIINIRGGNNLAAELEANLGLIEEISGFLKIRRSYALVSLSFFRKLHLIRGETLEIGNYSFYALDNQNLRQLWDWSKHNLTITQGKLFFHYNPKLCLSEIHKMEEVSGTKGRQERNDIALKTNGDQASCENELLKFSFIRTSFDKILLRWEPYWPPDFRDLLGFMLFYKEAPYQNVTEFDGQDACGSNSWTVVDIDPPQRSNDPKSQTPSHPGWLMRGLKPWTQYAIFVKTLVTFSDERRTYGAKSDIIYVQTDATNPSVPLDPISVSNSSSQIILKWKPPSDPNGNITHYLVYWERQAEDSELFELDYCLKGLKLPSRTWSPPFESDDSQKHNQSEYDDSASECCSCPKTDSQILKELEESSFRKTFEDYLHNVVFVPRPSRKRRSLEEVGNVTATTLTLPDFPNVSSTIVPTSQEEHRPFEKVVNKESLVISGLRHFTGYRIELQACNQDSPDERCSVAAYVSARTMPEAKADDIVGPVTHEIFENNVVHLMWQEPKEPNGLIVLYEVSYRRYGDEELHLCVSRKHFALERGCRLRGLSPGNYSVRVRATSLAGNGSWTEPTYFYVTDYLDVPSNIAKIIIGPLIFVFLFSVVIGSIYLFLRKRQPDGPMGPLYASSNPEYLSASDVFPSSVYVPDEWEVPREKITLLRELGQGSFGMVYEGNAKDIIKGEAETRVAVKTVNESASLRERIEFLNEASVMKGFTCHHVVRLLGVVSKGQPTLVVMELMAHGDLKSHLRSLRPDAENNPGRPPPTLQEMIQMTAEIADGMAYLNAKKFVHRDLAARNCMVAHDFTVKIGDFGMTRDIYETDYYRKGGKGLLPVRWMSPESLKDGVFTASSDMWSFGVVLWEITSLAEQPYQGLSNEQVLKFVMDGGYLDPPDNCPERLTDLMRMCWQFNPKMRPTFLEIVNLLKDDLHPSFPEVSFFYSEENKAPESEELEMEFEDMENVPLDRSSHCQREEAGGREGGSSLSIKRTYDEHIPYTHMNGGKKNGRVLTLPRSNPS
Procedure: Insulin signaling in the cell lysates were tested by immunoblotting. (B) DDN stimulates glucose uptake. […] [3H]2-deoxyglucose was then added, and the cells were further incubated for 10 min. [3H]2-deoxyglucose uptake by adipocytes was measured by scintillation counting (*: P<0.05 **: P<0.01 vs control, Student's t-test, n=3). (C) DDN synergizes insulin's signaling. […] Cell lysates were then prepared for Western blot using specific antibodies as indicated. […] 3H-2-deoxyglucose was then added, and the cells were further incubated for 10 min. 3H-2-deoxyglucose uptake by adipocytes was measured by scintillation counting (*: P<0.05; **: P<0.01, Student's t-test, n=3). (E) IR is necessary for DDN to induce ERK phosphorylation. Differentiated 3T3-L1 adipocytes were transfected with control siRNA or siRNA against IR. […] Cell lysates were analyzed by Western blot. (F) The glucose uptake induced by DDN in p85α knockout MEF cells. […] The uptake of 3H-2-deoxyglucose was monitored by liquid scintillation counting (*: P<0.05; **: P<0.01 vs control, Student's t-test, n=3).
(A) 4524-E7 activates IR phosphorylation and its downstream signaling in 3T3-L1 adipocytes. […] The cells were lysed, and immunoprecipitated with PY20, and followed by Western blot using specific antibodies. (B) 4524-E7 stimulates glucose uptake in 3T3-L1 adipocytes. […] [3H]2-deoxyglucose was added, and the cells were further incubated for 10 min. The amount of [3H]2-deoxyglucose taken by adipocytes was measured. (C) 4524-E7 inhibits fatty acid oxidation. […] Results were normalized to DMSO-treated cells and expressed as mean±S.E.M. (*: P<0.05; **:P<0.01, Student's t-test, n=3). (D) IR knockdown in adipocytes decreases IR signaling by 4524-E7. […] Cells lysates were collected and analyzed by Western blot. (E) The glucose uptake induced by 4524-E7 in p85α knockout MEF cells. […] The uptaken [3H] 2-deoxyglucose was monitored by liquid scintillation counter. Results were expressed as mean±S.E.M. (*: P<0.05; **:P<0.01, Student's t-test, n=3). […]

[2] = test system: EGFR; test: EGFR phosphorylation in cells (immunoblotting); assay type: cell-based
Procedure: (A) DDN and CSN activate IR and its downstream signaling in CHO-IR cells. […] The cell lysates were analyzed by immunoblotting with anti-phospho-IR antibodies, or immunoprecipitated by PY20 and analyzed using anti-IR and anti-IRS-1, respectively. (B) DDN and CSN induce IR phosphorylation in a dose-dependent manner. CHO-IR cells were treated with the small compounds at different concentrations for 15 min, and the IR phosphorylation was monitored by immunoprecipitation and immunoblotting. (C) DDN, CSN induce IR phosphorylation in a time-dependent manner. […] (D) DDN and CSN induce IR phosphorylation and its downstream signaling in a dose-dependent manner. […] (E) DDN and CSN cannot induce IGF-1R or EGFR phosphorylation. CHO-IGF-1R or HEK293 cells were treated with EGF (100 nM), IGF-1 (100 nM), DDN (10 μM) or CSN (10 μM) for 15 min. The cell lysates were analyzed by immunoblotting with anti-pIGF-1R and anti-pEGFR.
(A) Chemical structure of 4524-E7. (B) Effect of 4524-E7 and other 1,4-naphthoquinone derivatives on IR phosphorylation in CHO-IR cells. CHO-IR cells were cultured in 96-well plates and treated with 5 μM compounds for 15 min at 37 C. Cells were lysed, and IR phosphorylations were tested by ELISA. The IR phosphorylation activities of the tested compounds were expressed as a percentage of the vehicle. (C) 4524-E7 and 1,4-naphthoquinone derivates activate IR and its downstream signaling in CHO-IR cells. […] The cell lysates were analyzed by immunoblotting with various indicated antibodies. The phosphorylated IR was immunoprecipitated using PY20 and analyzed by immunoblotting with anti-IR13 antibody. […] The phosphorylation of each receptor was determined by Western blot using specific antibodies as indicated. (E) 4524-E7 activates IR through its ICD. Upper panel: Diagram of chimaeric receptors. Lower panel: His-tagged wild-type IR, IGFR-IR, IR-IGFR, and IR-EGFR constructs were transfected into CHO cells followed vehicle or 5 μM 4524-E7 treatment for 30 min. Then the cells were lysated and the transfected receptor fused to His tag were pulled down with Ni+ beads, followed by western blot against anti-p-Tyr and anti-His. The cell lysates were tested with anti-p-Akt and anti-Akt.
A cell-based ELISA assay was developed with an IR stably transfected Chinese Hamster Ovary (CHO-IR) cell line. The cells were seeded in a 96-well plate and treated with 10 μM (15 min) compounds. The cell lysates were subjected to the sandwich ELISA using immobilized anti-phosphotyrosine antibody and anti-IR antibody. […] Among the positive hits, 1,4-naphthoquinone compounds were identified that can selectively activate IR but not IGF-1R (FIG. 1A). […] Total IR tyrosine phosphorylation was further confirmed by immunoprecipitation using anti-phosphotyrosine (PY20) antibody (FIG. 2A, 3rd panel). […]

| Molecule | IR, Akt and Erk1/2 phosphorylation in combination with insulin ([1]; 4524-E7 plus 10 nM insulin) | activation of endogenous IR ([1]; different concentrations, 15 min, alone) | Akt and ERK phosphorylation after IR knockdown [1] | EGFR activation ([2]; EGFR-transfected HEK293 cells, 5 μM) | EGFR activation ([2]; differentiated 3T3-L1 adipocytes) | IR phosphorylation in combination with insulin ([1]; 5 nM DDN plus 5 nM insulin) | IR phosphorylation ([1]; alone) | IR and Akt activation ([1]; DDN 0.1, 0.25, 0.5 μM, 30 min) | ERK phosphorylation after IR knockdown [1] | EGFR activation ([2]; HEK293 cells, 10 μM, 15 min) |
| --- | --- | --- | --- | --- | --- | --- | --- | --- | --- | --- |
| O=C1c2ccccc2C(=O)C2SC(Nc3ccc(Cl)cc3)=NC12 (stereo not shown) [4524-E7, 2-((4-chlorophenyl)amino)naphtho[2,3-d]thiazole-4,9(3aH,9aH)-dione] | much more robust IR, Akt and Erk1/2 phosphorylation than insulin or 4524-E7 alone | could activate the endogenous IR | also reduced | not any other RTKs | neither IGF-1R nor EGFR was activated |  |  |  |  |  |
| CC(=O)Oc1ccc(OC(C)=O)c2c1C(=O)C(Cl)=C(Cl)C2=O [DDN, 5,8-diacetyloxy-2,3-dichloro-1,4-naphthoquinone] |  |  |  |  |  | higher than those observed when insulin or DDN was administrated separately | did not induce any IR activation | elicited a dose-dependent IR and Akt activation | reduced when IR was depleted | Neither IGF-1R nor EGFR was activated |
| insulin: insulin, used as positive control |  |  | also reduced |  |  |  | able to trigger IR phosphorylation |  | reduced when IR was depleted |  |
